Data taken from US6716829B2, “Aldosterone antagonist and cyclooxygenase-2 inhibitor combination therapy to prevent or treat inflammation-related cardiovascular disorders” (Pharmacia Corporation, priority 2000, dated 2004).
Several values for one entry are separate records, joined by “and”; a condition that tells them apart may be missing. Identical values can stand only once. Entries after “also recorded” stand apart in the source; their conditions may differ.

Key:
[1] = test system: aldosterone infused rats; test: Assay B, aldosterone infusion model: systolic blood pressure by radio-telemetry; type: in vivo, Male Sprague Dawley rats; conditions: 1% NaCl, uni-nephrectomized rats, eplerenone 100 mpk p.o., 4 weeks
Procedure: Human cardiovascular disorders are complex conditions, often initiated by vascular hypertension or a myocardial infarction (MI). In order to determine the probable effectiveness of a therapy for cardiovascular disorders, it is important to determine the potency of components in several assays. Accordingly, in Assay “A”, the efficacy of the aldosterone antagonist epeplerenone (epoxymexrenone) was determined in a hypertensive rat model with vascular inflammation, using angiotensin II infusion. In Assay “B” a study is described evaluating the efficacy of the aldosterone antagonist epeplerenone (epoxymexrenone) in a rat model using aldosterone infusion to produce hypertension with vascular inflammation. In Assay “C” a further study is described evaluating the efficacy of the aldosterone antagonist epeplerenone (epoxymexrenone) in a rat model using aldosterone infusion to produce hypertension with vascular inflammation. Assay B: In Vivo Aldosterone Infusion Model Male Sprague Dawley rats (n=39; BW=250 g) […] Uni-nephrectomy performed during implantation of mini-pumps 2. Aldosterone ([…], sc via alzet minipump) 2. […] 1. […] SBP measured by radio-telemetry probes inserted in the abdominal aorta

[2] = test system: cyclooxgenase-2; test: Assay A: immunostaining of hearts with cyclooxygenase-2 specific antibody; type: in vivo, Male Wistar rats; conditions: angiotensin II infused rats, eplerenone 100 mpk, aldosterone replacement in adrenalectomized rats
Text: Cycloxygenase-2 staining was also observed in the vascular smooth muscle cells of the media of coronary arteries, even when there was no evidence of morphologic alterations or inflammatory aggregates in the perivascular space (FIG. 26).

[3] = test system: Osteopontin; test: Assay C: osteopontin mRNA in heart by TaqMan RT-PCR; type: in vivo, Male Sprague-Dawley rats; conditions: for Osteop-pontin mRNA (AU): relative to cyclophilin expression, mean ± SEM, eplerenone dose 100 mg/kg/day; for Osteopontin (AU): mRNA, individual rats, incl. rat marked * excluded from statistics
Procedure: The procedure of Assay B was expanded upon in a further study. […] Myocardial tissue from animals in each treatment group was examined after 7, 14, or 30 days of treatment.
Potassium chloride supplementation was added to the saline solution in order to prevent the potential hypokalemia associated with aldosterone excess.
At the time of the surgery, an Alzet 2002 osmotic minipump (Alza Corp., Palo Alto, Calif.) containing either vehicle (9% ethanol/87% propylene glycol/4% dH2O) or 1.0 mg/mL d-aldosterone (Sigma Chemical, St. Louis, Mo.) was inserted subcutaneously at the nape of the neck. Aldosterone was administered at a dose of 0.75 µg/hour. […] Animals were sacrificed from each group (n=8-13) after 7, 14, or 30 days of treatment.
The fluorogenic 5′-nuclease assay (TaqMan PCR) using Applied Biosystems' 7700 Sequence Detection System (Applied Biosystems, Foster City, Calif.) allowed for real time detection/quantitation of a specific gene by monitoring the increase in fluorescence of a gene-specific, dye-labeled oligonucleotide probe. Probes for target and reference genes were labeled at the 5′-end with a 6-carboxyfluorescein (6FAM) reporter dye and at the 3′-end with a 6-carboxy-N,N,N′,N′-tetramethylrhodamine (TAMRA) quencher dye. When the probe was annealed to the target gene, fluorescence of 6FAM was prevented by the close proximity of TAMRA. The exonuclease activity of Taq polymerase released the dyes from the oligonucleotide probe by displacing the probe from the target sequence resulting in fluorescence excitation in direct proportion to the amount of target message present. Data analysis was performed using the Sequence Detection System software from Applied Biosystems.
All primers and probes were designed using Primer Express software supplied with the 7700 Sequence Detection System and synthesized by Applied Biosystems. Standard curves using 5-fold dilutions of total RNA (from 200 ng to 320 pg) were performed to determine the efficiency of each primer/probe set in the TaqMan reaction prior to the analysis of the experimental samples. Primer/probe sets were designed from known sequences of rat genes to be analyzed. All target gene values were normalized to a reference gene, constitutively expressed cyclophilin. Primer/probe set sequences can be found in Table 8.
RNA was extracted from frozen (−80° C.) rat heart tissue using the Totally RNA Isolation Kit (Ambion, Inc., Austin, Tex.). Tissue was crushed using a stainless steel mortar and pestle, which had been chilled to −80° C. and transferred to a dounce homogenizer (Kontes, Vineland, N.J.) containing 3-10 mL cold denaturation buffer. Tissue was homogenized and transferred to a sterile, 15 mL polypropylene centrifuge tube. An equal volume of phenol:chloroform:isoamyl alcohol (25:24:1) was added, samples were shaken vigorously for 1 min, and incubated on ice for at least 15 min. Samples were centrifuged for 30 min at 10,000g. The aqueous phase was removed, 1/10 volume of a sodium acetate solution (3.0 M NaOAc pH 4.5) was added, samples were shaken or inverted for 10 seconds, and acid-phenol (premixed with isoamyl alcohol):chloroform (5:1, Ambion, Inc.) was added at an volume equivalent to the starting sample volume. Samples were shaken vigorously for 1 min, followed by a 15-min incubation on ice, and centrifuged for 30 min at 10,000 g. The aqueous phase removed and placed in a clean polypropylene tube. An equal volume of isopropanol (Sigma, St. Louis, Mo.) was added and the samples were mixed and incubated overnight at −20° C. The samples were centrifuged for 30 min at 10,000 g, the supernatant was removed and the RNA pellet was resuspended in DNAse/RNAse-free water. Samples were frozen at −80° C. for at least 2 hours, thawed on wet ice, and diluted for quantitation.

Compound	Systolic Blood Pressure [1]	Cyclooxygenase-2 expression in the heart (immunostaining) [2]	Osteop-pontin mRNA (AU) ([3]; after 7 days of treatment)	Osteopontin expression upregulation ([3]; after 14 days of aldosterone + salt treatment) [fold]	Osteop-pontin mRNA (AU) ([3]; after 14 days of treatment)	Osteopontin expression upregulation ([3]; after 30 days of aldosterone + salt treatment) [fold]	Osteop-pontin mRNA (AU) ([3]; after 30 days of treatment)	Osteopontin (AU) ([3]; data used for Table 17 (7-day protocol), listed as Aldosterone + salt)	Osteopontin (AU) ([3]; data used for Table 18 (14-day protocol), listed as Aldosterone + salt)	Osteopontin (AU) ([3]; data used for Table 19 (30-day protocol), listed as Aldosterone + salt)	Systolic Blood Pressure ([1]; listed as eplerenone)	Cyclooxygenase-2 expression in the heart (immunostaining) ([2]; listed as eplerenone)	Osteopontin (AU) ([3]; data used for Table 17 (7-day protocol), listed as Eplerenone + aldosterone + salt)	Osteopontin (AU) ([3]; data used for Table 18 (14-day protocol), listed as Eplerenone + aldosterone + salt)	Osteopontin (AU) ([3]; data used for Table 19 (30-day protocol), listed as Eplerenone + aldosterone + salt)	Osteopontin mRNA expression ([3]; myocardium, aldosterone + salt, 7, 14, 30 days, eplerenone 100 mg/kg/day)
C[C@]12CCC(=O)C=C1CC[C@@H]1[C@@H]2[C@@H](O)C[C@]2(C=O)[C@@H](C(=O)CO)CC[C@@H]12 [Aldosterone]	increased; also recorded: systolic blood pressure elevation	restored the presence of cycloxygenase-2	1.91	~6	6.56	~13	13.27	1.84 AU and 0.84 AU and 0.95 AU and 1.05 AU and 1.08 AU and 4.92 AU and 3.29 AU and 1.32 AU and 28.64 AU	8.14 AU and 1.02 AU and 6.19 AU and 4.06 AU and 12.04 AU and 2.35 AU and 8.25 AU and 10.41 AU and 81.29 AU	13.13 AU and 11.43 AU and 13.78 AU and 7.97 AU and 18.44 AU and 14.88 AU						
COC(=O)[C@@H]1CC2=CC(=O)CC[C@]2(C)[C@@]23O[C@@H]2C[C@@]2(C)[C@@H](CC[C@@]24CCC(=O)O4)[C@H]13 [Eplerenone]	significantly reduced, but did not normalize blood pressure	markedly reduced and in most cases completely prevented	0.75		2.94		2.59				depression of this elevation	prevention	0.54 AU and 1.24 AU and 0.52 AU and 0.27 AU and 0.60 AU and 1.13 AU and 0.96 AU and 0.75 AU	4.03 AU and 1.00 AU and 0.77 AU and 8.43 AU and 1.59 AU and 3.97 AU and 3.93 AU and 2.13 AU and 0.72 AU and 4.76 AU and 0.99 AU	1.53 AU and 3.28 AU and 1.98 AU and 8.91 AU and 1.88 AU and 1.97 AU and 1.28 AU and 1.43 AU and 1.01 AU and 54.57 AU	inhibition; also recorded: significantly reduced
